Read-outs that look alike come from different tables or passages of the source.
Tests used:
NMDA-type receptor = assay: Binding assay of NMDA-type receptor (3H-CPP) on rat forebrain crude synaptic membrane; settings: 10 nM 3H-CPP, pH 7.1, 0° C., 15 min; read-out: Affinity to NMDA-type receptor (3H-CPP), IC50
Text: (§1) The receptors of the exitatory amino acid (especially, glutamate) are classified into NMDA type, Quisqualate type and Kainate type. 3H-CPP [3-(2-carboxypiperazin-4-yl)propyl-1-[…]] as the ligand (a radio active substance which has high affinity for the receptor) for the NMDA-type-receptor, ^3 H-AMPA (DL-α-amino-3-hydroxy-5-methylisoxazole-4-propionic acid) as the ligand for the quisqualate-type-receptor, and ^3 H-kainic acid as the ligand for the kainate-type-receptor were used respectively. A sample of the crude synaptic membrane prepared from the forebrain of rat was washed 4 times by Tris hydrochloric acid buffer (pH 7.1) and kept in a freezing condition at -20° C. until its use.
(§2) Samples of the frozen crude synaptic membrane were melted and, after floating on 50 mM Tris hydrochloric acid buffer (pH 7.1), incubated for 30 minutes at 37° C. After the incubation, the synaptic membrane was centrifuged (48,000×g) and washed 3 times with 50 mM Tris hydrochloric acid buffer and used in the test.
(§3) In the binding assay of the NMDA-type-receptor, samples of the synaptic membrane were incubated in the presence or absence of a test compound together with 10 nM ^3 H-CPP in 50 mM Tris hydrochloric acid buffer (pH 7.1, 0° C.) for 15 minutes. The sediment (pellet) containing synapse membrane which was recovered by centrifugation of the incubation solution was rinsed with 50 mM Tris hydrochloric acid buffer (pH 7.1) and dissolved in 0.5 ml of Protosol® (made by New England Nuclear Inc.). In the binding assay of Quisqualate-type-receptor and Kainate-type-receptor, samples of the synapse was incubated in the presence or absence of a test compound in 5 nM ^3 H-AMPA (Quisqualate-type-receptor) or 2 nM ^3 H-Kainic acid (Kainate-type-receptor) together with 50 mM Tris hydrochloric acid buffer (pH 7.1, 0° C.) for 90 minutes. The solution was filtered with Whatman GF/B filter (Whatman®, made by Whatman Inc.) under reduced pressure and the filter was washed 3 times with 50 mM Tris hydrochloric acid buffer. The radioactivity on the filter was measured by a conventional method. The specific binding amount was determined by subtracting the non-specific binding from the total binding, taking the binding in the presence of an excessive non-radioactive L-sodium glutamate (1 mM) as the amount of the non-specfic binding, i.e., the binding to anything other than the receptor. The 50% inhibiting concentration (IC50) of the compound to be tested was determined as the concentration which inhibits 50% of the specific receptor binding of ^3 H-CPP, ^3 H-AMPA or ^3 H-kainic acid.

[1] = target: Quisqualate-type receptor; assay: Binding assay of Quisqualate-type receptor (3H-AMPA) on rat forebrain crude synaptic membrane
Text: as §1, §2
as §3, with “receptor.” for “receptor. The 50% inhibiting concentration (IC50) of the compound to be tested was determined as the concentration which inhibits 50% of the specific receptor binding of ^3 H-CPP, ^3 H-AMPA or ^3 H-kainic acid.”

Kainate-type receptor = assay: Binding assay of Kainate-type receptor (3H-kainic acid) on rat forebrain crude synaptic membrane
Text: as §1, §2
as §3, with “receptor.” for “receptor. The 50% inhibiting concentration (IC50) of the compound to be tested was determined as the concentration which inhibits 50% of the specific receptor binding of ^3 H-CPP, ^3 H-AMPA or ^3 H-kainic acid.”

[2] = system: glutamate receptor (NMDA type, Quisqualate type and Kainate type); assay: Affinity for the glutamate receptors of the brain, 3 sub-types taken together; type: binding, rat; settings: summary of Table 5
Text: as §1, §2, §3

[3] = system: neurons of rat hippocampus; assay: Excitatory action on neurons of rat hippocampus in vitro (CA1 spike recording in slices); type: cell-based; settings: rat hippocampal slices, CA1 pyramidal cell layer, Krebs-Ringer solution 33° C., read-out: Minimum effective concentration to induce firing of hippocampus nervous cell
Method: Male Wister rats (body weight: 300 -350 g) were used in the test. After cutting the head of rats, the brain was quickly taken out and […] thickness of the sliced samples of a hippocampus was prepared by a slice cutter. These samples were incubated in a nutrient solution (Krebs-Ringer solution, 33° C.) saturated with a mixed gas of 95% of oxygen gas and 5% of carbon dioxide gas for one or more hours. The test was carried out in the perfusion cisterna with perfusing at the flow speed of 1.5 ml/min. The action potential (spike) in CA1 pyramidal cell layer of the hippocampus was recorded extracellularlly by using a glass electrode filled with 2M NaCl solution. The test compounds were added to the perfusate and the change in number of the spikes with passage of time was counted by a pulse counter and recorded on the recorder. The Krebs-Ringer's solution contains 124 mM of NaCl, 5 mM of KCl, 1.24 mM of KH2 PO4, 1.3 mM of MgSO4, 2.4 mM of CaCL2, 26 mM of […] and 10 mM of glucose.

Acute toxicity in mouse = settings: in vivo, any administration routes (iv, ip, sc, po)
[4] = Conversion of each component of TAN-950 in aqueous solution (HPLC); type: physicochemical; settings: 60° C.
Text: The mixture of TAN-950A - E was applied to HPLC in order to isolate each component thereof and each component was isolated as approximately single peak compound.

Solubility = type: physicochemical
[5] = starting material heated in aqueous solution, 1 hour

N[C@@H](Cc1c[nH]oc1=O)C(=O)O [Compound 1, TAN-950A]
IC50 (NMDA-type receptor): 19 µM | IC50 ([1]; 5 nM 3H-AMPA, pH 7.1, 0° C., 90 min, read-out: Affinity to Quisqulate-type receptor (3H-AMPA), IC50): 0.28 µM | Affinity to the Quisqualate-type-receptor (in words) ([1]; summary of Table 5): strong affinity | Affinity to Kainate-type receptor (3H-KA), IC50 (Kainate-type receptor; 2 nM 3H-Kainic acid, pH 7.1, 0° C., 90 min): 3.6 µM | Affinity to the Kainate-type-receptor (in words) (Kainate-type receptor; summary of Table 5): strong affinity | Affinity to the 3 sub-type receptors (in words) [2]: high affinities to the 3 sub-type receptors | minimal effective concentration ([3]; Rattus norvegicus, Neuron): ≥ 300 µM | minimal effective concentration ([3]; listed as 1 (sodium salt)): 300 µM | LD50 (Acute toxicity in mouse): > 4000 mg/kg | Conversion in aqueous solution (in words) ([4]; aqueous solution): converted mainly to TAN-950B and D, but slightly to TAN-950C and E | TAN-950A in resulting substance, area percentage by HPLC [4, 5]: 63.8% | TAN-950B in resulting substance, area percentage by HPLC [4, 5]: 13.0% | TAN-950C in resulting substance, area percentage by HPLC [4, 5]: 5.7% | TAN-950D in resulting substance, area percentage by HPLC [4, 5]: 12.1% | TAN-950E in resulting substance, area percentage by HPLC [4, 5]: 3.1% | Solubility in acetone (Solubility; acetone): Sparingly soluble | Solubility in chloroform (Solubility; chloroform): Sparingly soluble | Solubility in dimethylsulfoxide (Solubility; dimethylsulfoxide): Soluble | Solubility in ethyl acetate (Solubility; ethyl acetate): Sparingly soluble | Solubility in methanol (Solubility; methanol): Soluble | Solubility in water (Solubility; water): Soluble

From patent US5021439A, “Cerebral function ameliorating agents related to Tan-950 A” (priority 1988, dated 1991)
